Laboratory results from ChEMBL document CHEMBL4476874, “Compounds for the modulation of myc activity” (2018).

Legend:
[1] = system: NCI-H2171; assay: Antiproliferative activity against human NCI-H2171 cells after 72 hrs by ATPlite assay; type: functional, cell-based; conditions: NCI-H2171, 72 h
[2] = molecular target: Myc proto-oncogene protein (Homo sapiens, UniProt P01106); assay: Inhibition of human c-Myc assessed as reduction in c-Myc/Max/Ebox DNA complex formation using pre-formed complex of c-Myc and biotinylated DNA containing single Ebox-sequence followed by compound addition and further addition of his6-tagged c-Max and incubated for 2 hrs by AlphaScreen assay
Sequence of Myc proto-oncogene protein (P01106 whole entry): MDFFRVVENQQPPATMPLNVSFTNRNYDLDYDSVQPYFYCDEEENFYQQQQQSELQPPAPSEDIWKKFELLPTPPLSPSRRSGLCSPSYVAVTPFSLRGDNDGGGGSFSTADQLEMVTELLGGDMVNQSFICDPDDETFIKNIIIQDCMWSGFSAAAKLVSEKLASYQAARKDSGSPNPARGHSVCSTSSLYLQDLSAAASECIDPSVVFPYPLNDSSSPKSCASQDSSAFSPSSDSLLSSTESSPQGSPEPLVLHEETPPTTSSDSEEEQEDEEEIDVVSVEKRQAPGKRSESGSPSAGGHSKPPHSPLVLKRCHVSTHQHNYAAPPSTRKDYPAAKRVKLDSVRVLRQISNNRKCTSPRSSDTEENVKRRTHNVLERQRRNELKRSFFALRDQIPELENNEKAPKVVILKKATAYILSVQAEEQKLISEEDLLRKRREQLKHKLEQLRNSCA

Row | Compound | IC50 [1] [nM] | IC50 [2] [nM]
1 | Cc1nn(C)cc1-c1ccc2sc(-c3c(NC(=O)CCNC(C)C)sc4c3CCNC4)nc2c1 | 1000 to 10000 | < 300
2 | COCCNCCC(=O)Nc1sc2c(c1-c1nc3cc(-c4ccc(C)nc4)ccc3s1)CCNC2 | < 300 | 300 to 1000
3 | CNS(=O)(=O)c1cccc(-c2ccc3nc(-c4c(NC(=O)CCNCCOC)sc5c4CCNC5)sc3c2)c1 | < 300 | 300 to 1000
4 | COCCNCCC(=O)Nc1sc2c(c1-c1nc3cc(-c4ccnc(OC)c4)ccc3s1)CCNC2 | < 300 | 300 to 1000
5 | COCCNCCC(=O)Nc1sc2c(c1-c1nc3c(N4CCOCC4)cccc3s1)CCNC2 | 300 to 1000 | > 10000
6 | CCN(CC)CCNCCC(=O)Nc1sc2c(c1-c1nc3ccccc3s1)CCN(C(C)C)C2 | 1000 to 10000 | 300 to 1000
7 | COCCNCCC(=O)Nc1sc2c(c1-c1nc3cc(-c4cnc(N5CCOCC5)nc4)ccc3s1)CCNC2 | < 300 | 300 to 1000
8 | COCCNCCC(=O)Nc1sc2c(c1-c1nc3ccc(-c4ccnc(NC(C)=O)c4)cc3s1)CCNC2 | < 300 | 300 to 1000
9 | COCCNCCC(=O)Nc1sc2c(c1-c1nc3cc(-c4cncc(C)c4)ccc3s1)CCNC2 | < 300 | 300 to 1000
10 | Cc1cc(-c2ccc3sc(-c4c(NC(=O)CCNC(C)C)sc5c4CCNC5)nc3c2)cc(C)n1 | < 300 | > 10000
11 | COCCNCCC(=O)Nc1sc2c(c1-c1nc3cc(-c4ccc(OC(C)C)nc4)ccc3s1)CCNC2 | < 300 | 1000 to 10000
12 | CC(C)N1CCc2c(sc(NC(=O)CCN3CCOCC3)c2-c2nc3ccccc3s2)C1 | < 300 | 300 to 1000
13 | COCCNCCC(=O)Nc1sc2c(c1-c1nc3cc(-c4cccc(C#N)c4)ccc3s1)CCNC2 | < 300 | 300 to 1000
14 | COCCNCCC(=O)Nc1sc2c(c1-c1nc3cc(-c4ccc(F)nc4F)ccc3s1)CCNC2 | < 300 | 300 to 1000
15 | COCCNCCC(=O)Nc1sc2c(c1-c1nc3ccc(-c4ccnc(N)c4)cc3s1)CCNC2 | < 300 | 300 to 1000
16 | Cc1cn(-c2ccc3sc(-c4c(NC(=O)CCNC(C)C)sc5c4CCNC5)nc3c2)cn1 | < 300 | < 300
17 | COCCNCCC(=O)Nc1sc2c(c1-c1nc3cc(-c4cncnc4)ccc3s1)CCNC2 | 300 to 1000 | < 300
18 | COCCNCCC(=O)Nc1sc2c(c1-c1nc3ccc(-c4cccc(S(N)(=O)=O)c4)cc3s1)CCNC2 | < 300 | 300 to 1000

Row | Compound | IC50 [1] [nM] | IC50 [2] [nM]
19 | COCCNCCC(=O)Nc1sc2c(c1-c1nc3cc(-c4ccc(C(=O)N(C)C)cc4F)ccc3s1)CCNC2 | < 300 | 300 to 1000
20 | COCCNCCC(=O)Nc1sc2c(c1-c1nc3ccc(-c4ccc(C)nc4)cc3s1)CCNC2 | < 300 | 300 to 1000
21 | CCC(C)N(CCC(=O)Nc1sc2c(c1-c1nc3ccccc3s1)CCNC2)C(C)=O (stereo not given) | 1000 to 10000 | 1000 to 10000
22 | CC(C)NCCC(=O)Nc1sc2c(c1-c1nc3cc(S(C)(=O)=O)ccc3s1)CCNC2 | > 10000 | < 300
23 | COCCNCCC(=O)Nc1sc2c(c1-c1nc3cc(-c4ccccc4NS(C)(=O)=O)ccc3s1)CCNC2 | < 300 | 1000 to 10000
24 | O=C(C[C@H]1CCCN1)Nc1sc2c(c1-c1nc3ccccc3s1)CCNC2 | < 300 | 300 to 1000
25 | COCCNCCC(=O)Nc1sc2c(c1-c1nc3cc(-c4ccc5ncnn5c4)ccc3s1)CCNC2 | < 300 | < 300
26 | COCCNCCC(=O)Nc1sc2c(c1-c1nc3ccc(-c4ccnc(C)c4)cc3s1)CCNC2 | < 300 | 300 to 1000
27 | CC(C)NCCC(=O)Nc1sc2c(c1-c1nc3cc(-c4ccc(O)cc4)ccc3s1)CCNC2 | 300 to 1000 | < 300
28 | CNS(=O)(=O)c1cccc(-c2ccc3sc(-c4c(NC(=O)CCNCCOC)sc5c4CCNC5)nc3c2)c1 | < 300 | 300 to 1000
29 | COCCNCCC(=O)Nc1sc2c(c1-c1nc3c(-n4ccnc4C)cccc3s1)CCNC2 | < 300 | 300 to 1000
30 | CC(C)NCCC(=O)N(C)c1sc2c(c1-c1nc3cc(-c4cnn(C)c4)ccc3s1)CCNC2 | 1000 to 10000 | > 10000
31 | COCCNCCC(=O)Nc1sc2c(c1-c1nc3ccc(-c4ccc(F)nc4)cc3s1)CCNC2 | < 300 | 300 to 1000
32 | CNC(=O)Nc1ccc(-c2ccc3nc(-c4c(NC(=O)CCNCCOC)sc5c4CCNC5)sc3c2)cc1 | < 300 | 1000 to 10000
33 | CC(C)NCCC(=O)Nc1sc2c(c1-c1nc3cc(Sc4ccccc4)ccc3s1)CCNC2 | 300 to 1000 | > 10000
34 | COCCNCCC(=O)Nc1sc2c(c1-c1nc3cc(-c4ccc(N5CCN(C)CC5)cc4)ccc3s1)CCNC2 | < 300 | 300 to 1000
35 | COCCNCCC(=O)Nc1sc2c(c1-c1nc3ccccc3s1)CCN(C(C)C)C2 | 1000 to 10000 | 300 to 1000
